The record followed here is patent US11447479B2, “Compounds active towards nuclear receptors” (NUEVOLUTION A/S, priority 2019, dated 2022).

In one experiment the test system is plasma IL-17A. Put plainly: In vivo IL-17A induction in anti-CD3 model in mice. The following applies: oral gavage twice daily day 0 to day 3, plasma IL-17A by ELISA, C57BL/6JRj mice. The method, then: In Vivo IL-17A Induction in Anti-CD3 Model in Mice
Male C57BL/6JRj mice (7 week old) were purchased from Janvier Labs and housed at the animal facilities of Almirall throughout the study. Animals were allowed to condition for 5 days in their new environment at 22° C.±2° C., 55%±10% relative humidity and 12 h:12 h light:dark cycles. Animals were housed in polycarbonate cages, with free access to water and non-purified stock diet (2014 Teklad Global 14% Protein Rodent Maintenance Diet, Envigo) during the full course of the studies. Care of animals was undertaken in compliance with the European Committee Directive 2010/63/EU, and the Catalan and Spanish law. […]
Plasma levels of IL-17A were measured by ELISA (R&D Systems) according to the manufacturer's instruction. Results were calculated as the percentage of reduction of plasma IL-17A versus the difference between non-induced and anti-CD3e induced groups through the formula: inhibition=100*[1−[(x−mean non-induced)/(mean control vehicle−mean non-induced)]]. The IL-17A inhibition for each treatment can be expressed as the mean for each treatment group±S.E.M. Statistical analysis of data were conducted with one-way ANOVA followed by Dunnett's multiple comparisons test when appropriate. […]

The target in the next experiment is T1, RORγ (Homo sapiens, UniProt P51449).
T1 construct: Gal4 (galactose-responsive transcription factor); expressed in transfected cells; host or cells: HEK293
T1 sequence (P51449 269-508 limits assumed): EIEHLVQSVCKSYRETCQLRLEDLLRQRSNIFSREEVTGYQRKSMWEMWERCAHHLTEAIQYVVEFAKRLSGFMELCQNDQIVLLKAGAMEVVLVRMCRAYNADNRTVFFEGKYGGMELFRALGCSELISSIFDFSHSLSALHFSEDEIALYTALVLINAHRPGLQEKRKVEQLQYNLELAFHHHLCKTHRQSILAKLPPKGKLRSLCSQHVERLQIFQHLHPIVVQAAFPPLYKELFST
Put plainly: RORγ Reporter Assay (Gal4). The experiment is classed as cell-based. The following applies: HEK293 co-transfected with RORγ LBD-Gal4 and luciferase reporter, 24 h incubation, absolute IC50; read-out: IC50.

As to `NC(=O)CN1CC[C@H](CNc2ncnc(N3CC(F)(F)C[C@@H]3c3ccc(C(F)(F)F)cc3)c2F)[C@@H](O)C1` (single isomer, unassigned) [Example H6-17-1, 2-((3R*,4R*)-4-(((6-((R)-4,4-difluoro-2-(4-(trifluoromethyl)phenyl)pyrrolidin-1-yl)-5-fluoropyrimidin-4-yl)amino)methyl)-3-hydroxypiperidin-1-yl)acetamide], in the experiment with plasma IL-17A, the “Inhibition of IL-17A (%) at 3 mg/kg” value is 67%. In addition, at RORγ, the IC50 came out at 26 nM.
